Reference: US20120083522A1, “MODULATION OF INFLAMMATORY RESPONSES BY FACTOR XI” (Isis Pharmaceuitcals, inc., priority 2009, published 2012)
e = 2'-O-(2-methoxyethyl) (MOE); d = 2'-deoxy (DNA)

Legend:
human Factor XI mRNA [1] = test: Dose-dependent antisense inhibition in HepG2 cells, lipofectin (Example 2); format: cell-based; conditions: approximately 16 hours
Procedure: Cells were plated at a density of 10,000 cells per well and transfected using lipofectin reagent with 9.375 nM, 18.75 nM, 37.5 nM, 75 nM, and 150 nM concentrations of antisense oligonucleotide, as specified in Table 3. After a treatment period of approximately 16 hours, RNA was isolated from the cells and Factor XI mRNA levels were measured by quantitative real-time PCR. Human Factor XI primer probe set RTS 2966 (forward sequence: […], incorporated herein as SEQ ID NO: 3; reverse sequence: […], incorporated herein as SEQ ID NO: 4; probe sequence: TTGTCTACTGAAGCACACCCAAACAGGGAX, wherein X is the fluorophore, incorporated herein as SEQ ID NO: 5) was used to measure mRNA levels. Factor XI mRNA levels were adjusted according to total RNA content, as measured by RIBOGREEN®. Results are presented as percent inhibition of Factor XI, relative to untreated control cells.

human Factor XI mRNA [2] = test: Antisense inhibition in HepG2 cells by microwalk gapmers, 75 nM, lipofectin (Example 3); format: cell-based; conditions: HepG2 cells, 75 nM, oligonucleotides targeted to nucleobases 1275 to 1318 of SEQ ID NO: 1
Summary of the method: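 HepG2 cells (10,000 per well) were transfected with 75 nM gapmer using lipofectin and treated for about 24 h. Factor XI mRNA was quantified by real-time PCR, normalized to RiboGreen total RNA and expressed as percent inhibition versus untreated controls.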

human Factor XI mRNA [3] = test: Antisense inhibition in HepG2 cells by microwalk gapmers, 8,000 nM, electroporation (Example 14); format: cell-based; conditions: HepG2 cells, 8,000 nM
Summary of the method: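 Percent reduction of Factor XI transcript, relative to untreated controls, by real-time PCR with RIBOGREEN normalisation. Readout taken about 24 h after electroporating HepG2 cells with 8,000 nM oligonucleotide. Gapmers are 5-10-5, 5-8-5 or 6-8-6 MOE wings, phosphorothioate backbone.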

[4] = set-up: species or system Sprague-Dawley rats; conditions: rat, in vivo, sc, 20 mg/kg
Procedure: The concentration of the full-length oligonucleotide as well as the total oligonucleotide concentration (including the degraded form) was measured. The method used is a modification of previously published methods (Leeds et al., 1996; Geary et al., 1999) which consist of a phenol-chloroform (liquid-liquid) extraction followed by a solid phase extraction. An internal standard (ISIS 355868, a 27-mer 2′-O-methoxyethyl modified phosphorothioate oligonucleotide, […], designated herein as SEQ ID NO: 270) was added prior to extraction. […] The results are presented in Tables 98 and 99, expressed as μg/g liver or kidney tissue.

Row | Substance | percent inhibition of Factor XI (human Factor XI mRNA [1]; 9.375 nM) | percent inhibition of Factor XI (human Factor XI mRNA [1]; 18.75 nM) | percent inhibition of Factor XI (human Factor XI mRNA [1]; 37.5 nM) | percent inhibition of Factor XI (human Factor XI mRNA [1]; 75 nM) | percent inhibition of Factor XI (human Factor XI mRNA [1]; 150 nM) | % inhibition of human Factor XI mRNA levels (human Factor XI mRNA [2]) | Percent inhibition of human Factor XI mRNA levels (human Factor XI mRNA [3]) | Half-life in the liver and kidney [4]
1 | 412223 (antisense ACAGTTTCTGGCAGGCCTCG; sugars from the 5' end e5 d10 e5, backbone and methylation of C not given here) [compound 412223] | 33% | 48% | 62% | 76% | 81% | 85% | 62% | 22 days
2 | 412224 (antisense GCATTGGTGCACAGTTTCTG; sugars from the 5' end e5 d10 e5, backbone and methylation of C not given here) [compound 412224] | 24% | 45% | 57% | 70% | 81% | 93% | 84% | 17 days
3 | 412225 (antisense GCAGCGGACGGCATTGGTGC; sugars from the 5' end e5 d10 e5, backbone and methylation of C not given here) [compound 412225] | 32% | 42% | 65% | 78% | 73% | 86% | 86% | 21 days
